Results on nine compounds are retold here after ChEMBL document CHEMBL1201862, “PubChem BioAssay data set” (2004).

Experiment [1] can be described thus: control 3'UTR Renilla luciferase suppression, dose response, counter-screen for Shn3 inhibitor project, cell-based, Clone20-Shn3RL, cherry-picked (AID 624133). It is filed as functional.
Experiment [2] can be described thus: HepG2 cell cytotoxicity, dose response, cytotoxicity control for Shn3 inhibitor project, CellTiter-Glo, cherry-picked (AID 624134). The format is functional, cell-based.
Experiment [3] in a line: reduction of Shn3 3'UTR firefly luciferase signal, dose response, Schnurri-3 inhibitor project, cell-based, Clone20 osteoblasts, cherry-pick, set 2 (AID 720490).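 Note: actives lower the luminescence signal as inhibitors.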 It is filed as functional.
Experiment [4] in a line: Shn3 3'UTR reporter inhibitors, dose response, cell-based, Clone20 osteoblasts, firefly luciferase, cherry-picked (AID 624132).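 Note: firefly luciferase luminescence from reporter carrying the Shn3 3'UTR in osteoblasts.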 It is filed as functional.
A further experiment deals with T1, Cytochrome P450 1A2 (Homo sapiens, UniProt P05177).
T1 sequence (P05177 whole entry): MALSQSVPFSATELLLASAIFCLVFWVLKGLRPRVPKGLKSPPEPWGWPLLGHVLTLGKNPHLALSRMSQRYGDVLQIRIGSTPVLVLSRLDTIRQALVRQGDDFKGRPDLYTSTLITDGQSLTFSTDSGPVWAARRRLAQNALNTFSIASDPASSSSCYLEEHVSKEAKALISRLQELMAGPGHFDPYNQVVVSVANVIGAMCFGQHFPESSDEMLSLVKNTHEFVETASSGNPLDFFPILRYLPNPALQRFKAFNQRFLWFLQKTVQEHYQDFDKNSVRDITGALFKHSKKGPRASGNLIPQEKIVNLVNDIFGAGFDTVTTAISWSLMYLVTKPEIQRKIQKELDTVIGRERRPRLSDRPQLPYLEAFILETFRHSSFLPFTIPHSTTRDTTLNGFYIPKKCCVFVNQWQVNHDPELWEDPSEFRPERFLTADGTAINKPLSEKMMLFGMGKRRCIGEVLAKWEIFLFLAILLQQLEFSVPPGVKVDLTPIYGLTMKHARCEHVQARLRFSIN

For a further experiment, the target named is fMet-Leu-Phe receptor (Homo sapiens, UniProt P21462). Briefly: FPR ligands, dose response (AID 519). It is filed as functional.
Experiment [5] in a line: HepG2 cell cytotoxicity, dose response, cytotoxicity control, plate reader, cherry-pick, antagonist series (AID 743416). It is filed as functional, cell-based.
Experiment [6] is described as follows: inhibitors of clade B AD8 Env fusion, dose response, cell-based, cherry-pick (AID 652062).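 Note: luciferase signal from cell-cell fusion driven by HIV-1 clade B AD8 Env; potency is for inhibitors of fusion seen as a drop in luminescence.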 It is filed as functional.
Experiment [7] relates to BJ. Briefly: cytotoxicity toward BJ-TERT fibroblasts, dose response, cell-based, RAS-independent, luminescence (AID 1933). The format is functional. Conditions: Homo sapiens.
Experiment [8] can be described thus: non-specific cell cytotoxicity, dose response, cytotoxicity control for PAX8 inhibitor project, plate reader, dry powder samples (AID 743021). It is filed as functional, cell-based.
Experiment [9] is described as follows: off-target signal loss in HeLa-CEM21 co-culture – HeLa F-luc CTL cells, cherry-picked, counter-screen for HIV-1 Env fusion inhibitor project, dose response (AID 652040).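 Note: potency for signal decrease marking cytotoxic or nonspecific inhibition.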 It is filed as functional, cell-based. Background: The purpose of a counterscreen is to sort out artefacts and off-target activity.
A short description of experiment [10]: Luminescence Cell-Based Dose Confirmation HTS to Identify Inhibitors of Platelet Dense Granule Release. [Related pubchem assays: 1663 (Primary HTS), 1678 (Summary of Project)]. It is filed as functional.
Experiment [11] can be described thus: cytotoxicity toward DRD oncogenic fibroblasts, dose response, cell-based, non-viral oncogenic, luminescence (AID 1934). It is filed as functional. Conditions: Homo sapiens.
The target in another experiment is Paired box protein Pax-8 (Homo sapiens, UniProt Q06710). The experiment can be described thus: inhibitors of PAX8-driven TPO luciferase reporter, dose response, RMG-I cells, cherry-pick (AID 687027).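 Note: luciferase reporter driven by Pax8 target thyroperoxidase promoter measured by SteadyGlo luminescence.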 The format is functional, cell-based.
For experiment [12], the target named is Luciferin 4-monooxygenase (Photinus pyralis, UniProt P08659). Briefly: firefly luciferase enzyme inhibitors, dose response, biochemical, luminescence (AID 1891).
Experiment [13] can be described thus: inhibitors of HIV Env-driven cell fusion, dose response, cherry-pick (AID 652057). The format is functional, cell-based.
Experiment [14] is described as follows: CEM21 lymphoblast cell cytotoxicity, dose response, cytotoxicity control for viral fusion inhibitor project, CellTiter-Glo luminescence, cherry-picked (AID 652042).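 Note: potency for signal decrease meaning cytotoxicity.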 It is filed as functional, cell-based.
A short description of experiment [15]: ZM109 Env clade C HIV-1 fusion inhibitors, dose response, HeLa effector, CEM target cells, luciferase, cherry-pick (AID 652058). The format is functional, cell-based.
Experiment [16] in a line: A549 cell cytotoxicity, dose response, cytotoxicity control, plate reader, cherry-pick, antagonist series (AID 743412). The format is functional, cell-based.
The nature of experiment [17]: MC4R antagonists, dose response, counter-screen for LGR2 antagonist project, cell-based, plate reader, cherry pick (AID 743444).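 Note: transfected HEK 293 cells stimulated with alpha-MSH peptide; potency of inhibitors of the alpha-MSH evoked signal.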 It is filed as functional.
Experiment [18] can be described thus: cytotoxicity in HEK-293T cells, dose response, cytotoxicity control for TCR NF-kB inhibitor project, luminescence, T-cell screen hits (AID 489026).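 Note: cells exposed to compound about 14 hours before the viability readout.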 It is filed as functional, cell-based.
For experiment [19], the system named is BJ. The experiment can be described thus: cytotoxicity toward BJ-TERT-LT-ST fibroblasts, dose response, cell-based, RAS-independent, luminescence (AID 1935).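 Note: BJ fibroblasts immortalized with TERT plus LT and ST oncogenes.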 It is filed as functional. Conditions: Homo sapiens.
The subject of experiment [20] is BJ. The experiment can be described thus: cells. The format is functional, cell-based. Conditions: Homo sapiens.
Experiment [21] is described as follows: HEK293 cell cytotoxicity, dose response, cytotoxicity control, plate reader, cherry-picked samples (AID 743446). The format is functional, cell-based.
Experiment [22] can be described thus: LGR2 antagonists, dose response, cell-based, HEK293, CRE-luciferase reporter, cherry pick, set 2 (AID 743343).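 Note: transfected cells were stimulated with diluted bursicon conditioned medium after compound addition.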 The format is functional. For orientation: In a reporter assay the amount or activity of a reporter protein is the signal.
Experiment [23] addresses Endoplasmic reticulum aminopeptidase 1 (Homo sapiens, UniProt Q9NZ08). Briefly: ERAP1 aminopeptidase inhibitors, dose response, biochemical, cherry-pick, set 2, plate reader (AID 743314).
Experiment [24] addresses Tyrosyl-DNA phosphodiesterase 2 (Homo sapiens, UniProt O95551). Briefly: human TDP2 enzyme inhibitors, dose response, biochemical, epi absorbance, IC50 (AID 743297).
In experiment [25] the target is T2, Histone-lysine N-methyltransferase NSD2 (Homo sapiens, UniProt O96028).
T2 sequence (O96028 whole entry): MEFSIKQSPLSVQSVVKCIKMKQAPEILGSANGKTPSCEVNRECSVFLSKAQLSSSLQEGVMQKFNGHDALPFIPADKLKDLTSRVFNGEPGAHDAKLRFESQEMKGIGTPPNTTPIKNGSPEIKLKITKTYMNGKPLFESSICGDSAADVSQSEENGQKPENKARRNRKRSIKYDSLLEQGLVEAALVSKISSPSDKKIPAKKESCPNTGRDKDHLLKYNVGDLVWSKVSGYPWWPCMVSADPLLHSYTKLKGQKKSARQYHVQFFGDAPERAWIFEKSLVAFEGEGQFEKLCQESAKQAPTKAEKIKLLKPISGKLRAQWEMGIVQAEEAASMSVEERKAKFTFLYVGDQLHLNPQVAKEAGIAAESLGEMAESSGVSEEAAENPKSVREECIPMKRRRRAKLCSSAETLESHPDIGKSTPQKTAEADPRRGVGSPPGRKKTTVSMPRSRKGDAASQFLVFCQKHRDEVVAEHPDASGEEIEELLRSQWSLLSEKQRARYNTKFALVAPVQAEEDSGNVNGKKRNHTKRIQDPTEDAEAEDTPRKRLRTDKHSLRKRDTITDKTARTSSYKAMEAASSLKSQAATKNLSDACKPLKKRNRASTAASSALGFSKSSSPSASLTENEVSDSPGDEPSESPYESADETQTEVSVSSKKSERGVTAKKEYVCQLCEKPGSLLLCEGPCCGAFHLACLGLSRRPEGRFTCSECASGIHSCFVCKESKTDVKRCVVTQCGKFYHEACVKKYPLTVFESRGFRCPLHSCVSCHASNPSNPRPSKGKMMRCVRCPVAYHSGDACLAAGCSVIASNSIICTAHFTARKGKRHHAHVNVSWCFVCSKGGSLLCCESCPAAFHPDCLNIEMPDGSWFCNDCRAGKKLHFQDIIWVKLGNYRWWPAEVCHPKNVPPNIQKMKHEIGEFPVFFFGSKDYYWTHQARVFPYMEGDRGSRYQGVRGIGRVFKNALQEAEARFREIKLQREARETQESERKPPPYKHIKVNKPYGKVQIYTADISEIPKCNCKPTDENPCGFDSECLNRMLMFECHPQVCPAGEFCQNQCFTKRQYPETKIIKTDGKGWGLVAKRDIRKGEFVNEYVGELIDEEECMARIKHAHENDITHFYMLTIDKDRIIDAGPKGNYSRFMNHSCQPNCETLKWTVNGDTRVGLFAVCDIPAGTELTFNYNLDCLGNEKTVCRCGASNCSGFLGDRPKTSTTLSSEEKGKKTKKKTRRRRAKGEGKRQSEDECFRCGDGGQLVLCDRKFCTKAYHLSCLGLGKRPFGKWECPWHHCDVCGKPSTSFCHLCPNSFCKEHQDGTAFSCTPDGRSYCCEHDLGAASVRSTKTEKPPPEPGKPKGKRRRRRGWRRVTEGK
The format is biochemical.

The next experiment deals with Vero. Briefly: Vero cell cytotoxicity, cytotoxicity control for flavivirus capping enzyme inhibitors (AID 588742). The format is functional. Conditions: Chlorocebus sabaeus.
Experiment [26] in a line: YAP1 pathway inhibition via CTGF transcript levels, dose response, cell-based, DLD1 colon cancer, RT-qPCR, cherry-pick (AID 1053122). It is filed as functional. Conditions: Cancer cell lines. A general note: Quantitative PCR measures a nucleic acid by following its amplification.
Experiment [27] in a line: Mycobacterium tuberculosis BioA enzyme inhibitor Measured in Biochemical System Using Plate Reader - 2163-02_Inhibitor_Dose_DryPowder_Activity.
Experiment [28] in a line: A Cell-Based Confirmatory Screen for Compounds that Inhibit VEEV, TC-83 (8). It is filed as functional.
Experiment [29] can be described thus: HeLa cell cytotoxicity, dose response, cytotoxicity control, 24 h, plate reader, dry powder (AID 686928). The format is functional, cell-based.

Active and inactive are the calls of the source. Some results are limits rather than exact numbers.

Endoplasmic reticulum aminopeptidase 1, sequence (Q9NZ08 whole entry): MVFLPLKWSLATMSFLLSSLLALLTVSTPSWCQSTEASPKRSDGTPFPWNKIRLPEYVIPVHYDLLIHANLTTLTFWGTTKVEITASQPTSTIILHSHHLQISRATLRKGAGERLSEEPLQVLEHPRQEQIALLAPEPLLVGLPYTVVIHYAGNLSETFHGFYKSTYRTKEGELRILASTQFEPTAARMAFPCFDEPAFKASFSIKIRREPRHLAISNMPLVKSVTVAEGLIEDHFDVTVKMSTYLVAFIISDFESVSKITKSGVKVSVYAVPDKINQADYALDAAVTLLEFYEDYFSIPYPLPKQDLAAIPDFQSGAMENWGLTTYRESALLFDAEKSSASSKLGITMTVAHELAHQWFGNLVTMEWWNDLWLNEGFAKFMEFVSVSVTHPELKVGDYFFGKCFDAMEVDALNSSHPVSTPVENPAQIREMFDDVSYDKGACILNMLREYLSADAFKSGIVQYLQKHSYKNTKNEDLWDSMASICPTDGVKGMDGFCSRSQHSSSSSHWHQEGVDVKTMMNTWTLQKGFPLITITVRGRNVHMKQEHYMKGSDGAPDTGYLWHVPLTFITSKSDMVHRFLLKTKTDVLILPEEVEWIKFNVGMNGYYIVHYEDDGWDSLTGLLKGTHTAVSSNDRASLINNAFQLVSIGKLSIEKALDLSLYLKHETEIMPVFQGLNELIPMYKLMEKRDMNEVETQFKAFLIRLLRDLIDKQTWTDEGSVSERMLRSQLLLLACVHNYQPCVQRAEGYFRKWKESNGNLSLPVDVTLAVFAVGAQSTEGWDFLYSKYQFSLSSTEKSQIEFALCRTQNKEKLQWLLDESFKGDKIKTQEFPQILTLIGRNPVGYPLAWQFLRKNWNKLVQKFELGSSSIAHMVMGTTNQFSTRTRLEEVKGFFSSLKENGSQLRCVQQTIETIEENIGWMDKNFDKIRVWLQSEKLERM
Tyrosyl-DNA phosphodiesterase 2, sequence (O95551 whole entry): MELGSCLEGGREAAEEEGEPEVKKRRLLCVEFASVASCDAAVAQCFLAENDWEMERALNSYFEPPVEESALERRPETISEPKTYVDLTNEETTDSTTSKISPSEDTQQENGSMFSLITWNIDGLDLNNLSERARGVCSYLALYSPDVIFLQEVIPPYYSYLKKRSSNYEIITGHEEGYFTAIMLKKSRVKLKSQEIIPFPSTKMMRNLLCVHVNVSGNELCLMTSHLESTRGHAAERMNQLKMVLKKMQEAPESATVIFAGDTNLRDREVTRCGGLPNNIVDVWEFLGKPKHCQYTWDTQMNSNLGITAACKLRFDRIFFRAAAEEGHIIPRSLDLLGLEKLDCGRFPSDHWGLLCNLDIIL
fMet-Leu-Phe receptor, sequence (P21462 whole entry): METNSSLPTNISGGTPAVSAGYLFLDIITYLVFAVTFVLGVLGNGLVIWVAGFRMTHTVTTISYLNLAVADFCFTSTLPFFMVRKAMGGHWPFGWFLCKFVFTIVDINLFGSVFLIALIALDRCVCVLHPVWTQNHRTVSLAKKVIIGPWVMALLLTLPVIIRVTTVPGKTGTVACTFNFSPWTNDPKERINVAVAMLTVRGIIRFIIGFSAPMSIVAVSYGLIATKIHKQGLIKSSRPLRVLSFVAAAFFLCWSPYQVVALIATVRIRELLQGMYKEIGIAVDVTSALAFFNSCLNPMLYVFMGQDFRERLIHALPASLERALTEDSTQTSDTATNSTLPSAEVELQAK
Paired box protein Pax-8, sequence (Q06710 whole entry): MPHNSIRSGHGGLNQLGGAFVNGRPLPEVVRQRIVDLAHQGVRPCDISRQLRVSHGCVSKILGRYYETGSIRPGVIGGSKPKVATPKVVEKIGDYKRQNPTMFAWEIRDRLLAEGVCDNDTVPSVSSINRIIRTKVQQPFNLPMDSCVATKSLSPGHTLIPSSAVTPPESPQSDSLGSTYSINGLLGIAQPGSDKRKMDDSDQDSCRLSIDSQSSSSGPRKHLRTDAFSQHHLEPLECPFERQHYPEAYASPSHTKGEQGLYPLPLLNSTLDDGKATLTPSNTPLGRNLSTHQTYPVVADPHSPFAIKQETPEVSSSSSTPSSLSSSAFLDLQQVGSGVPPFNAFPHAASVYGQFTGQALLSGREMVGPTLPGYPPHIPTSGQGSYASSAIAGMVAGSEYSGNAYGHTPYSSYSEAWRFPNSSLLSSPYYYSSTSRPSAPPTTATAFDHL
Luciferin 4-monooxygenase, sequence (P08659 whole entry, the tested form may be a part): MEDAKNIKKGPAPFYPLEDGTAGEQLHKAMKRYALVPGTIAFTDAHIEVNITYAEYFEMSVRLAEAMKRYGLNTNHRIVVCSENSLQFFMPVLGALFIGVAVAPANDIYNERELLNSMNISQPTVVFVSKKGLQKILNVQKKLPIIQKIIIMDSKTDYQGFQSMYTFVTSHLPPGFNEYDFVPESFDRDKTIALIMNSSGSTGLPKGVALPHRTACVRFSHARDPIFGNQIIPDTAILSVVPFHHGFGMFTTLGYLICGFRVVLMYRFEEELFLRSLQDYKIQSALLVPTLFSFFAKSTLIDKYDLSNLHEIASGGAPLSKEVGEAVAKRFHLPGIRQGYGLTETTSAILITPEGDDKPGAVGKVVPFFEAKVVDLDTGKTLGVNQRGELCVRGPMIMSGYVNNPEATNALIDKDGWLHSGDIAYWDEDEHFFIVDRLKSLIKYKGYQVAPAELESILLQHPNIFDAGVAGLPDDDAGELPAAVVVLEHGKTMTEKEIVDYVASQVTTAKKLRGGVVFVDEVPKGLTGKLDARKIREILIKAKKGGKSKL

As usually defined, the AC50 is the concentration giving half of the maximal activity seen. `Cn1c(=O)c2c(nc(NCc3ccco3)n2CCc2ccccc2)n(C)c1=O`: the AC50 in experiment [1] was 18.3 µM (active); in [2], 50.9 µM (active); in experiment [3] it was 2.27 µM (active); in [4], 2.34 µM (active).

The Ki is the equilibrium dissociation constant of an inhibitor or competing ligand from its target. Regarding `Cc1nn2c(O)c(C#N)c(-c3ccccc3)nc2c1-c1ccccc1`, the AC50 at Cytochrome P450 1A2 was 20 µM (inconclusive). The Ki on fMet-Leu-Phe receptor was > 66.7 µM (inactive).

The EC50 is the concentration at which the effect is half-maximal. What is called IC50 is the point on the concentration scale where inhibition reaches its midpoint. In the case of `COc1ccccc1C(=O)Nc1nc2ccccc2s1`, the AC50 is 3.64 µM (active) in [5]; 2.44 µM (active) in [6]; 10.5 µM (active) in experiment [8]; 2.59 µM (active) in experiment [9]; 3.69 µM (active) on Paired box protein Pax-8; 2.05 µM (active) in experiment [13]. Besides, the AC50 in experiment [14] is 13.7 µM (active); in experiment [15], 10.9 µM (active); in experiment [16], 3.04 µM (active); in experiment [17] it was 172 nM (active); in [21], 3.61 µM (active); in experiment [22] it was 121 nM (active). The EC50 in the experiment on BJ [7] was 8.4 µM (active); in experiment [10] it was 3.96 µM (active); in experiment [11] it was 5.93 µM (active); in experiment [12] it was 296 nM (active); in the experiment with BJ [19] it was 15.8 µM (active); with BJ [20], 5.6 µM (active). For the same compound, in [18], the IC50 was > 80 µM (inactive).

Turning to `Cc1cc(=O)oc2c(CN3CCN(CCO)CC3)c(O)ccc12`, in [23], the AC50 is 9.03 µM (active).

Usually CC50 stands for the concentration giving 50% cytotoxicity. `O=C1C=C(Nc2cccnc2)c2ccccc2C1=O`: in experiment [24], the IC50 was 4.03 µM (active). Further, the AC50 in [25] is 3.7 µM (active). For the same compound, the CC50 in the experiment with Vero is 12.1 µM (active).

Consider `O=C(c1cccc(F)c1)N1CCCCN2[C@@H](CO)[C@H](c3ccc(C#CC4(O)CCCC4)cc3)[C@@H]2C1`, for which the AC50 in experiment [26] is 1.16 µM (active).

Take `O=C(Nc1cccc(Cl)c1)N1CCN(c2ccccc2)CC1`: in experiment [27], the concentration at half-maximal activity (AC50) is 11 µM (active).

As to `CNCCCN(C)Cc1nc2ccc([N+](=O)[O-])cc2c(=O)n1-c1ccccc1`, in experiment [28], the IC50 is < 500 nM (active).

For `COc1ccc(-n2cnc(=O)c3ccccc32)cc1Cl`, in experiment [29], the AC50 was > 160 µM (inactive).
